From patent US11447466B2, “Substituted indole compounds useful as inhibitors of TLR7/8/9” (BRISTOL-MYERS SQUIBB COMPANY, priority 2017, dated 2022)

Experiments:
Format in all cases: cell-based
[1] = molecular target: T1, human TLR7 (Homo sapiens, UniProt Q9NYK1); test: TLR7 inhibition reporter assay (HEK-Blue SEAP reporter, gardiquimod stimulation); details: HEK-Blue cells overexpressing human TLR7, SEAP reporter, gardiquimod 7.5 μM, 22 hour incubation
T1 construct: host or cells: HEK-Blue cells
T1 sequence (Q9NYK1 27-1049): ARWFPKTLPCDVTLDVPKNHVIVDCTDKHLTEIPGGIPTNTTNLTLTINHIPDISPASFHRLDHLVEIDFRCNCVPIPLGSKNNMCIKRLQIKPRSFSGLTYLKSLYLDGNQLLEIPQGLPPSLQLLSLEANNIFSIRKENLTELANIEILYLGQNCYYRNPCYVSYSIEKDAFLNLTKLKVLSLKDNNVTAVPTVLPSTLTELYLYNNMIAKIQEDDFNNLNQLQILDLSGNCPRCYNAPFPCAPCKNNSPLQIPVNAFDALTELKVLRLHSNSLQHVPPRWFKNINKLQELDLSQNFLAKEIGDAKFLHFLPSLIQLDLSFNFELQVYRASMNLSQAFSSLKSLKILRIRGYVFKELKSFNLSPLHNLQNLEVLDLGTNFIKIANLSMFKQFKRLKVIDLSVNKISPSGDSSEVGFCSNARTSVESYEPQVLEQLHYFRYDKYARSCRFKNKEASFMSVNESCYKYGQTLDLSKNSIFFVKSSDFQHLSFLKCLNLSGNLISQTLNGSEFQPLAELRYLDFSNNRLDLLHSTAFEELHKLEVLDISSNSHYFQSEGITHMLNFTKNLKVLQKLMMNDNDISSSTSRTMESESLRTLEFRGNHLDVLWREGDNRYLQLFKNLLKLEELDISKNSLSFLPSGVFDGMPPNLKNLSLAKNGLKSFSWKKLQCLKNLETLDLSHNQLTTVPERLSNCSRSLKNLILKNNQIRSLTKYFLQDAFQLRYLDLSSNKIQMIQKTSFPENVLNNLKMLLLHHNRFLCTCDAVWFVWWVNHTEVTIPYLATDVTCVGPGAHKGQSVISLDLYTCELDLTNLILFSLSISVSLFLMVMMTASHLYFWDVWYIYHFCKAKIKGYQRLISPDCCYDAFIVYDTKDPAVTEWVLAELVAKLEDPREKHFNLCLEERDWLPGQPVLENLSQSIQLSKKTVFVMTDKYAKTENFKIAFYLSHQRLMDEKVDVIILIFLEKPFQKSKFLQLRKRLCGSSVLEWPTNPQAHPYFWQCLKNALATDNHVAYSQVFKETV
Outline: (§1)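 Agonists used: gardiquimod 7.5 μM (TLR7), R848 15.9 μM (TLR8), ODN2006 5 nM (TLR9), added after 30 min room-temperature compound pre-treatment (0.05 nM–50 μM) of receptor-overexpressing HEK-Blue cells. SEAP reporter (NF-κB/AP-1 driven) read after 22 h at 37 °C; inhibition scaled between agonist+DMSO and reference-inhibitor wells.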

[2] = molecular target: T2, human TLR9 (Homo sapiens, UniProt Q9NR96); test: TLR9 inhibition reporter assay (HEK-Blue SEAP reporter, ODN2006 stimulation); details: HEK-Blue cells overexpressing human TLR9, SEAP reporter, ODN2006 5 nM, 22 hour incubation
T2 construct: host or cells: HEK-Blue cells
T2 sequence (Q9NR96 26-1032): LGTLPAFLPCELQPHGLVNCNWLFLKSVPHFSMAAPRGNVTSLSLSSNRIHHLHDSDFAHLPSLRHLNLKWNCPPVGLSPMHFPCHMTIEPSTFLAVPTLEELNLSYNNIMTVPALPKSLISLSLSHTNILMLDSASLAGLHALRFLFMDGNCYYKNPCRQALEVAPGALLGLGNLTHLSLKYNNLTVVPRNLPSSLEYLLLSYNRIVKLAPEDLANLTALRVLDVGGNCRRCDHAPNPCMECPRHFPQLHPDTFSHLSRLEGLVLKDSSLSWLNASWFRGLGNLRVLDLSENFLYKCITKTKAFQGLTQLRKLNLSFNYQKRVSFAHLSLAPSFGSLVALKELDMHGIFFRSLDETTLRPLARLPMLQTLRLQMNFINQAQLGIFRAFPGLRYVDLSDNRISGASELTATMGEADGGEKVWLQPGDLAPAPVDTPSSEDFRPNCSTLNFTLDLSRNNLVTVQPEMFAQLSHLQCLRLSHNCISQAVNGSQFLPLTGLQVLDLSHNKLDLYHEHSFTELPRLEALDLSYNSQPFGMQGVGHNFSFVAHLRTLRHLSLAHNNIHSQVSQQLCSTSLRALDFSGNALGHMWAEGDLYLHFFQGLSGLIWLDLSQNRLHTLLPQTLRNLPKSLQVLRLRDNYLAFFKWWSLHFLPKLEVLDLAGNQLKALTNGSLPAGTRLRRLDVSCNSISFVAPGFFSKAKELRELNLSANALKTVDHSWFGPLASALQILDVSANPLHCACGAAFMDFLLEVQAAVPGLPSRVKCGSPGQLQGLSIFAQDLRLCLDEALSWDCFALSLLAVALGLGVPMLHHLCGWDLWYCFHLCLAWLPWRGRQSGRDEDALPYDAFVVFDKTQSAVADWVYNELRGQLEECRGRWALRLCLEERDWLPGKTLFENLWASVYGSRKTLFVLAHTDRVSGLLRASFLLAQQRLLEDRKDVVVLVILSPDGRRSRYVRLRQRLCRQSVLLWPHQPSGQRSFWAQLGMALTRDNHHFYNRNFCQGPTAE
Outline: as §1

[3] = molecular target: T3, human TLR8 (Homo sapiens, UniProt Q9NR97); test: TLR8 inhibition reporter assay (HEK-Blue SEAP reporter, R848 stimulation); details: HEK-Blue cells overexpressing human TLR8, SEAP reporter, R848 15.9 μM, 22 hour incubation
T3 construct: host or cells: HEK-Blue cells
T3 sequence (Q9NR97 27-1041): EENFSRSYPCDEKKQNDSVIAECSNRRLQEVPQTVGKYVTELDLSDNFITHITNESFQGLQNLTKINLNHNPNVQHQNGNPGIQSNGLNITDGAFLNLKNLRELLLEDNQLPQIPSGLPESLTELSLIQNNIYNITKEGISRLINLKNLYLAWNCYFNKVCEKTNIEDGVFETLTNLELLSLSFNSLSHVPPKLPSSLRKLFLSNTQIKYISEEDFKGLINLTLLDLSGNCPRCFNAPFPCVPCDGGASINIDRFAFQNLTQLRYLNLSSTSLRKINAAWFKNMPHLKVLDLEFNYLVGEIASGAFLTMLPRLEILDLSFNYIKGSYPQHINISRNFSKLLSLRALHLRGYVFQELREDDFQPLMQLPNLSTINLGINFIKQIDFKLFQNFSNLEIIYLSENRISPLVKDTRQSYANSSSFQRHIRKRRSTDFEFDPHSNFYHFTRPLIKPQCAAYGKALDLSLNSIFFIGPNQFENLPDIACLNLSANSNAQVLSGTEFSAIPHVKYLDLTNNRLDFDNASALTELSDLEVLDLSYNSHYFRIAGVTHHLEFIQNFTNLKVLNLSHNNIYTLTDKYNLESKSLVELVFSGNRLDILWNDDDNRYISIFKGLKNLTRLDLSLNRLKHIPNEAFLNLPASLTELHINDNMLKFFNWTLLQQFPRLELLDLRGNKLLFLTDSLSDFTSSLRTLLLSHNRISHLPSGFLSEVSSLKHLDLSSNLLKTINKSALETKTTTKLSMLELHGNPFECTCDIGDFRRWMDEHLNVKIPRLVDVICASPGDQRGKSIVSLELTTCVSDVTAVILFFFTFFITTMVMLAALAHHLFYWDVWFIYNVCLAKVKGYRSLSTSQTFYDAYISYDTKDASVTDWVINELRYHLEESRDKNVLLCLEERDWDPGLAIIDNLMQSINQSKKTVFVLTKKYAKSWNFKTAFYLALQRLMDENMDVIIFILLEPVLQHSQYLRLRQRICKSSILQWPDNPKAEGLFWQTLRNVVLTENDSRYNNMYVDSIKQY
Outline: as §1

IC50 [1] [nM] | IC50 [2] [nM] | IC50 [3] [nM] | Structure (SMILES)
2.4 | 529 | 5.9 | CCCN1CCC(c2ccc3[nH]c(-c4cc(-c5ccc(NC(C)=O)nc5)c(=O)n(C)c4)c(C(C)C)c3c2)CC1 [Example 335, N-(5′-(3-isopropyl-5-(1-propylpiperidin-4-yl)-1H-indol-2-yl)-1′-methyl-2′-oxo-1′,2′-dihydro-[3,3′-bipyridin]-6-yl)acetamide]
10.2 | 553 | 1.2 | CCCN1CCC(c2ccc3[nH]c(-c4cc(-c5ccncc5)c(=O)n(C)c4)c(C(C)C)c3c2)CC1 [Example 336, 5-(3-isopropyl-5-(1-propylpiperidin-4-yl)-1H-indol-2-yl)-1-methyl-[3,4′-bipyridin]-2(1H)-one]
1.8 | 2490 | 11.9 | CCCN1CCC(c2ccc3[nH]c(-c4cc(-c5cnc(C)nc5)c(=O)n(C)c4)c(C(C)C)c3c2)CC1 [Example 337, 5-(3-isopropyl-5-(1-propylpiperidin-4-yl)-1H-indol-2-yl)-1-methyl-3-(2-methylpyrimidin-5-yl)pyridin-2(1H)-one]
1.1 | 772 | 13.5 | CCCN1CCC(c2ccc3[nH]c(-c4cc(-c5cnc(C6CC6)nc5)c(=O)n(C)c4)c(C(C)C)c3c2)CC1 [Example 338, 3-(2-cyclopropylpyrimidin-5-yl)-5-(3-isopropyl-5-(1-propylpiperidin-4-yl)-1H-indol-2-yl)-1-methylpyridin-2(1H)-one]
28.9 | 1020 | 2140 | CCCN1CCC(c2ccc3[nH]c(-c4cc(-c5cnc(C(F)(F)F)nc5)c(=O)n(C)c4)c(C(C)C)c3c2)CC1 [Example 339, 5-(3-isopropyl-5-(1-propylpiperidin-4-yl)-1H-indol-2-yl)-1-methyl-3-(2-(trifluoromethyl)pyrimidin-5-yl) pyridin-2(1H)-one]
4.5 | 1210 | 16.6 | CCCN1CCC(c2ccc3[nH]c(-c4cc(-c5cccc(OC)c5)c(=O)n(C)c4)c(C(C)C)c3c2)CC1 [Example 340, 5-(3-isopropyl-5-(1-propylpiperidin-4-yl)-1H-indol-2-yl)-3-(3-methoxyphenyl)-1-methylpyridin-2(1H)-one]
16.2 | 714 | 4.3 | CCCN1CCC(c2ccc3[nH]c(-c4cc(-c5ccc(F)nc5)c(=O)n(C)c4)c(C(C)C)c3c2)CC1 [Example 341, 6′-fluoro-5-(3-isopropyl-5-(1-propylpiperidin-4-yl)-1H-indol-2-yl)-1-methyl-[3,3′-bipyridin]-2(1H)-one]
12.9 | 3330 | 16 | CC(C)c1c(-c2cc(-c3ccc(F)nc3)c(=O)n(C)c2)[nH]c2ccc(C3CCN(C(C)C)CC3)cc12 [Example 342, 6′-fluoro-5-(3-isopropyl-5-(1-isopropylpiperidin-4-yl)-1H-indol-2-yl)-1-methyl-[3,3′-bipyridin]-2(1H)-one]
18.3 | 1170 | 14.2 | Cc1cc(-c2cc(-c3[nH]c4ccc(C5CCN(C(C)C)CC5)cc4c3C(C)C)cn(C)c2=O)cnc1F [Example 343, 6′-fluoro-5-(3-isopropyl-5-(1-isopropylpiperidin-4-yl)-1H-indol-2-yl)-1,5′-dimethyl-[3,3′-bipyridin]-2(1H)-one]
11.5 | 322 | 26.5 | Cc1ncccc1-c1cc(-c2[nH]c3ccc(C4CCN(C(C)C)CC4)cc3c2C(C)C)cn(C)c1=O [Example 344, 5-(3-isopropyl-5-(1-isopropylpiperidin-4-yl)-1H-indol-2-yl)-1,2′-dimethyl-[3,3′-bipyridin]-2(1H)-one]
11.1 | 7050 | 16.9 | COCc1cc(-c2[nH]c3ccc(C4CCN(C5CCOCC5)CC4)cc3c2C(C)C)cn(C)c1=O [Example 345, 5-(3-isopropyl-5-(1-(tetrahydro-2H-pyran-4-yl)piperidin-4-yl)-1H-indol-2-yl)-3-(methoxymethyl)-1-methylpyridin-2(1H)-one]
37.9 | 16700 | 86.8 | COCc1cc(-c2[nH]c3ccc(C4CCN(C5COC5)CC4)cc3c2C(C)C)cn(C)c1=O [Example 346, 5-(3-isopropyl-5-(1-(oxetan-3-yl)piperidin-4-yl)-1H-indol-2-yl)-3-(methoxymethyl)-1-methylpyridin-2(1H)-one]
7.2 | 13600 | 28.6 | COCc1cc(-c2[nH]c3ccc(C4CCN(C(C)C)CC4)cc3c2C(C)C)cn(C)c1=O [Example 347, 5-(3-isopropyl-5-(1-isopropylpiperidin-4-yl)-1H-indol-2-yl)-3-(methoxymethyl)-1-methylpyridin-2(1H)-one]
7.1 | 10800 | 25.3 | CCCN1CCC(c2ccc3[nH]c(-c4cc(COC)c(=O)n(C)c4)c(C(C)C)c3c2)CC1 [Example 348, 5-(3-isopropyl-5-(1-propylpiperidin-4-yl)-1H-indol-2-yl)-3-(methoxymethyl)-1-methylpyridin-2(1H)-one]
